In the CheMixHub viscosity set:
± gives the uncertainty stated by the source.

Assay: xn = mol fraction of the nth substance listed

CCCCCCCCCCCC + c1ccccc1
Conditions | viscosity [mPa·s]
295.15 K, 100 kPa, x2 = 0.3903 | 1.047 ± 0.21
298 K, 101 kPa, x2 = 0.5 | 0.9053 ± 0.024
298.15 K, 101.33 kPa, x1 = 0.04733 | 0.6259 ± 0.0056
298.15 K, 101.33 kPa, x1 = 0.1084 | 0.6476 ± 0.0057
298.15 K, 101.33 kPa, x1 = 0.2036 | 0.6913 ± 0.0061
298.15 K, 101.33 kPa, x1 = 0.2978 | 0.7491 ± 0.0065
298.15 K, 101.33 kPa, x1 = 0.4139 | 0.8308 ± 0.0071
298.15 K, 101.33 kPa, x1 = 0.5192 | 0.9153 ± 0.0077
298.15 K, 101.33 kPa, x1 = 0.6155 | 0.9976 ± 0.0083
298.15 K, 101.33 kPa, x1 = 0.7291 | 1.102 ± 0.0091
298.15 K, 101.33 kPa, x1 = 0.8011 | 1.168 ± 0.0096
298.15 K, 101.33 kPa, x1 = 0.9231 | 1.291 ± 0.01
298.38 K, 101.3 kPa, x1 = 0.5002 | 0.8885 ± 0.011
298.52 K, 101.3 kPa, x1 = 0.2502 | 0.7103 ± 0.0087
298.76 K, 101.3 kPa, x1 = 0.7496 | 1.097 ± 0.013
298.77 K, 101.3 kPa, x1 = 0.7496 | 1.096 ± 0.013
298.79 K, 101.3 kPa, x1 = 0.7496 | 1.095 ± 0.013
299.49 K, 101.3 kPa, x1 = 0.5002 | 0.8746 ± 0.011
308.08 K, 101.3 kPa, x1 = 0.5002 | 0.775 ± 0.0094
308.51 K, 101.3 kPa, x1 = 0.2502 | 0.6242 ± 0.0076
308.9 K, 101.3 kPa, x1 = 0.7496 | 0.9482 ± 0.011
318 K, 101 kPa, x2 = 0.5 | 0.6904 ± 0.018
322.92 K, 101.3 kPa, x1 = 0.5002 | 0.6451 ± 0.0078
322.94 K, 101.3 kPa, x1 = 0.2502 | 0.5262 ± 0.0064

CC(C)[C@@H]1CC[C@@H](C)C[C@H]1O + CCCCCCCCCO
Conditions | viscosity [mPa·s]
298.15 K, 101.33 kPa, x1 = 0.5 | 35.03

COCCOCCO + COC(=O)OC
298.15 K, 101.33 kPa
Conditions | viscosity [mPa·s]
x1 = 0.0093 | 0.598 ± 0.008
x1 = 0.0245 | 0.612 ± 0.008
x1 = 0.037 | 0.623 ± 0.008
x1 = 0.0694 | 0.655 ± 0.008
x1 = 0.0966 | 0.685 ± 0.008
x1 = 0.1283 | 0.723 ± 0.008
x1 = 0.1675 | 0.774 ± 0.009
x1 = 0.1922 | 0.806 ± 0.009
x1 = 0.2198 | 0.848 ± 0.009
x1 = 0.3005 | 0.984 ± 0.01
x1 = 0.3454 | 1.069 ± 0.011
x1 = 0.3786 | 1.142 ± 0.012
x1 = 0.3835 | 1.154 ± 0.012
x1 = 0.4083 | 1.214 ± 0.012
x1 = 0.4365 | 1.284 ± 0.013
x1 = 0.4695 | 1.364 ± 0.014
x1 = 0.5345 | 1.538 ± 0.016
x1 = 0.584 | 1.681 ± 0.017
x1 = 0.623 | 1.803 ± 0.018
x1 = 0.6563 | 1.916 ± 0.02
x1 = 0.7394 | 2.226 ± 0.023
x1 = 0.7818 | 2.402 ± 0.025
x1 = 0.8262 | 2.598 ± 0.028
x1 = 0.8705 | 2.802 ± 0.031
x1 = 0.8876 | 2.889 ± 0.032
x1 = 0.9134 | 3.004 ± 0.033
x1 = 0.9327 | 3.098 ± 0.035
x1 = 0.9669 | 3.272 ± 0.037

CCn1cc[n+](C)c1.F[B-](F)(F)F + OCCO
Conditions | viscosity [mPa·s]
313.15 K, 101 kPa, x1 = 0.7003 | 10.55 ± 1.1
323.15 K, 100 kPa, x1 = 0.717 | 9.915 ± 1
323.15 K, 101 kPa, x1 = 0.7997 | 9.913 ± 0.99

CCOC(=O)OCC + CC(=O)N(C)C
298.15 K, 101 kPa
Conditions | viscosity [mPa·s]
x1 = 0.1371 | 0.925 ± 0.007
x1 = 0.2045 | 0.912 ± 0.007
x1 = 0.2821 | 0.896 ± 0.007
x1 = 0.3603 | 0.881 ± 0.007
x1 = 0.4462 | 0.865 ± 0.007
x1 = 0.5333 | 0.849 ± 0.007
x1 = 0.6265 | 0.831 ± 0.007
x1 = 0.7265 | 0.811 ± 0.007
x1 = 0.7839 | 0.8 ± 0.006
x1 = 0.8296 | 0.79 ± 0.006
x1 = 0.8887 | 0.778 ± 0.006

CCOC(=O)OCC + CS(C)=O
308.15 K, 101 kPa
Conditions | viscosity [mPa·s]
x2 = 0.0902 | 0.7 ± 0.008
x2 = 0.1358 | 0.719 ± 0.009
x2 = 0.2655 | 0.789 ± 0.009
x2 = 0.3678 | 0.836 ± 0.01
x2 = 0.468 | 0.928 ± 0.011
x2 = 0.5579 | 1.006 ± 0.012
x2 = 0.6013 | 1.047 ± 0.012
x2 = 0.6456 | 1.093 ± 0.013
x2 = 0.7167 | 1.172 ± 0.014
x2 = 0.7783 | 1.249 ± 0.015
x2 = 0.8439 | 1.344 ± 0.016
x2 = 0.9239 | 1.487 ± 0.017

CC(C)[C@@H]1CC[C@@H](C)C[C@H]1O + CC(=O)O
100 kPa, x1 = 0.5
Conditions | viscosity [mPa·s]
293.15 K | 11.3 ± 0.17
298.15 K | 8.691 ± 0.13
303.15 K | 6.904 ± 0.11
308.15 K | 5.59 ± 0.086
313.15 K | 4.564 ± 0.071
318.15 K | 3.843 ± 0.06
323.15 K | 3.251 ± 0.051
